Experimental data reported in patent US12377065B2, “Compositions for treatment of substance use disorder” (UNIVERSITY OF NORTH TEXAS HEALTH SCIENCE CENTER, priority 2019, dated 2025).

What was measured:
Swiss-Webster mice [1] = test: Acute cocaine-induced hyperlocomotion (Example 2); conditions: cocaine 40 mg/kg; for effect on acute cocaine-induced hyperlocomotion: all doses tested, i.p., ANOVA effect of treatment
Swiss-Webster mice [2] = test: Cocaine-conditioned locomotor response, acquisition and expression (Example 2)
mice = test: Cocaine-conditioned place preference; assay type: in vivo
Experimental: All mice underwent standard place conditioning. As depicted in FIG. 3, the procedures of the first four days were identical to those described previously (Shetty et al., 2017). A preference score was calculated for each individual mouse using the following equation: Time spent on S+ (at test)−Time spent on S+ (at pretest). The preference score assesses the nature and magnitude of drug conditioning to the S+ floor, with positive numbers reflecting an increase in preference for S+ following the experience with cocaine and negative numbers indicating a decrease in preference following experience with cocaine. A second test session was conducted 24 hours later (on day 5). This test was identical to the test session on day 4 except that 30 minutes prior to testing, mice were pretreated with either 5 or 10 mg/kg DMTU (i.p.). A preference score was calculated after the second test in a similar fashion as described for the first preference test.
Data Analysis. […] The existence of subgroups was determined through application of K-means clustering analysis (SYSTAT v. 13.1). In this fashion, Test 1 data was partitioned into 3 subgroups: mice with high positive preference scores (labeled as High Seeker group), mice with low positive preference scores (labeled as Low Seeker group), and mice with negative preference scores (labeled as Avoider group).
Data from the mice treated with 5 mg/kg DMTU during Test 2 were analyzed separately from data from mice treated with 10 mg/kg DMTU. Separate one-way repeated measures analysis of variance (ANOVA) was conducted, with test (comparison of preference score on test day 1 and day 2) as a within-subject factor.
To assess the ability of DMTU (by either the 5 mg/kg or 10 mg/kg dose) to reduce cocaine-induced preference on different subsets of mice, within-subject planned comparisons of preference scores on test 1 and 2 were performed for each cluster separately (Avoider, Low Seeker, High Seeker). Alpha was set to 0.05.

Swiss-Webster mice [3] = test: Nicotine-induced locomotor activity test; assay type: in vivo; conditions: 60-90 min; for motor activity, compound alone: no nicotine, vs vehicle
Experimental: Test Compounds. […] Chantix (varencline, 3 mg/kg) was obtained from National Institute on Drug Abuse. All drugs were dissolved in 0.9% saline and pH was maintained at 7.
Testing Procedures. […] In all studies, horizontal activity (interruption of photocell beams) was measured for 120 min within 10-min periods.
Different groups of Swiss-Webster mice were pretreated via injection (IP) with either DMTU (5 or 10 mg/kg), or Chantix (varenicline, 3 mg/kg) or vehicle (0.9% saline) for 30 minutes (FIG. 10). Following pretreatment all groups were mice were injected via the subcutaneous (sc) route with either 0.9% saline or r nicotine (1.6 mg/kg) just prior to placement in the activity chamber. The activity of all mice were recorded for a period of 2-h (FIG. 10).

Swiss-Webster mice [4] = test: Cocaine-conditioned locomotor activity, expression test (Example 1); conditions: last 15 minutes, vs Paired-vehicle, cocaine 40 mg/kg
[5] = all doses tested, i.p., ANOVA effect of treatment, last 15 min

## CC(=O)N[C@@H](CS)C(=O)O [NAC, N-acetylcysteine]
Swiss-Webster mice [1]
  effect on acute cocaine-induced hyperlocomotion: no significant main effect
Swiss-Webster mice [2]; 100 mg/kg i.p., post-hoc
  expression of the cocaine-conditioned locomotor response: significant attenuation
Swiss-Webster mice [2]; 250 mg/kg i.p., post-hoc vs paired control
  acquisition of the cocaine-conditioned locomotor response: significantly attenuated acquisition
Swiss-Webster mice [2]
  ED50:AD50 ratio: 1.2731
Swiss-Webster mice [2]; [5]
  acquisition of the cocaine-conditioned locomotor response: no significant main effect
  expression of the cocaine-conditioned locomotor response: main effect

## Cc1c(C)c2c(c(C)c1O)CC[C@@](C)(CCC[C@H](C)CCC[C@H](C)CCCC(C)C)O2 [Vitamin E, (+)-alpha-tocopherol]
Swiss-Webster mice [1]
  effect on acute cocaine-induced hyperlocomotion: had no effect on the acute effect of cocaine
Swiss-Webster mice [2]; [5]
  acquisition of the cocaine-conditioned locomotor response: failed to attenuate acquisition
  expression of the cocaine-conditioned locomotor response: failed to attenuate

## COc1cc(C(C)=O)ccc1O [Apocynin, apocynin]
Swiss-Webster mice [1]
  effect on acute cocaine-induced hyperlocomotion: no significant main effect
Swiss-Webster mice [2]; 25 mg/kg i.p., initial 15 min of the test, post hoc
  expression of the cocaine-conditioned locomotor response: facilitated expression of the conditioned response
Swiss-Webster mice [2]; [5]
  acquisition of the cocaine-conditioned locomotor response: no effect on acquisition
  expression of the cocaine-conditioned locomotor response: no effect on expression

## O=C1O[C@H]([C@@H](O)CO)C(O)=C1O [Vitamin C, L-ascorbic acid]
Swiss-Webster mice [1]; 100 mg/kg i.p.
  effect on acute hyperkinetic effect of cocaine: facilitated the acute hyperkinetic effect of cocaine
Swiss-Webster mice [2]; 100 mg/kg i.p., initial 15 min of the test, post-hoc
  acquisition of the cocaine-conditioned locomotor response: facilitated acquisition of the conditioned locomotor response
Swiss-Webster mice [2]; [5]
  acquisition of the cocaine-conditioned locomotor response: failed to attenuate acquisition
  expression of the cocaine-conditioned locomotor response: failed to attenuate

## CNC(=S)NC [DMTU, N,N′-dimethylthiourea]
mice; 5 mg/kg i.p. 30 min before Test 2, clusters combined, cocaine 15 mg/kg
  cocaine-conditioned place preference score, Test 2 vs Test 1: not significantly altered
mice; 5 mg/kg i.p., Avoider group
  cocaine-conditioned place preference score, Test 2 vs Test 1: Neither dose of DMTU succeeded in blocking preference scores
mice; 5 mg/kg i.p., High Seeker subset
  cocaine-conditioned place preference score, Test 2 vs Test 1: significantly reduced preference scores
mice; 5 mg/kg i.p., Low Seeker group
  cocaine-conditioned place preference score, Test 2 vs Test 1: Neither dose of DMTU succeeded in blocking preference scores
mice; 10 mg/kg i.p. 30 min before Test 2, clusters combined, cocaine 15 mg/kg
  cocaine-conditioned place preference score, Test 2 vs Test 1: not significantly altered
mice; 10 mg/kg i.p., Avoider group
  cocaine-conditioned place preference score, Test 2 vs Test 1: Neither dose of DMTU succeeded in blocking preference scores
mice; 10 mg/kg i.p., High Seeker subset
  cocaine-conditioned place preference score, Test 2 vs Test 1: significantly reduced preference scores
mice; 10 mg/kg i.p., Low Seeker group
  cocaine-conditioned place preference score, Test 2 vs Test 1: Neither dose of DMTU succeeded in blocking preference scores
Swiss-Webster mice [3]; 5 mg/kg IP 30 min pretreatment + nicotine 1.6 mg/kg sc, only 10 mg/kg was significant
  nicotine-induced stimulant locomotor activity (horizontal activity, counts): modulated nicotine induced stimulant action
Swiss-Webster mice [3]; 10 mg/kg IP 30 min pretreatment + nicotine 1.6 mg/kg sc, vs nicotine alone
  nicotine-induced stimulant locomotor activity (horizontal activity, counts): significantly reduced the nicotine stimulant activity
Swiss-Webster mice [3]; DMTU alone (5 or 10 mg/kg IP)
  motor activity, compound alone: failed to alter the motor activity
Swiss-Webster mice [1]
  effect on acute cocaine-induced hyperlocomotion: no significant main effect
Swiss-Webster mice [4]; 5 mg/kg i.p. 30 min before expression test
  expression of cocaine-conditioned locomotor activity (horizontal activity, counts): did not affect activity
Swiss-Webster mice [4]; 10 mg/kg i.p. 30 min before expression test
  expression of cocaine-conditioned locomotor activity (horizontal activity, counts): significantly inhibited cocaine-conditioned locomotor activity
Swiss-Webster mice [2]; 50 mg/kg i.p., post-hoc
  acquisition of the cocaine-conditioned locomotor response: significantly attenuated acquisition
Swiss-Webster mice [2]; 25-50 mg/kg i.p., post-hoc
  expression of the cocaine-conditioned locomotor response: significantly attenuating expression
Swiss-Webster mice [2]
  ED50:AD50 ratio: 4.676
Swiss-Webster mice [2]; [5]
  acquisition of the cocaine-conditioned locomotor response: significant main effect
  expression of the cocaine-conditioned locomotor response: significant effect on expression

## c1cnc2cc3c(cc2n1)[C@@H]1CNC[C@H]3C1 [Chantix, varenicline]
Swiss-Webster mice [3]; 3 mg/kg IP 30 min pretreatment + nicotine 1.6 mg/kg sc
  motor activity with nicotine: significant reduction
Swiss-Webster mice [3]; 3 mg/kg IP alone
  motor activity, compound alone: significant reduction
